According to US9169260B2 (MERCK SHARP & DOHME CORP., priority 2011, dated 2015):

Target: GST tagged IRAK-4 (Homo sapiens (Human), UniProt Q9NWZ3)
Assay: IRAK-4 Kinase Assay (IMAP fluorescence polarization)
Type: biochemical
Details: 100 μM ATP, 30 minutes at 25° C.
Protocol: The kinase activity of IRAK-4 is determined by its ability to catalyze the phosphorylation of a fluorescent polypeptide substrate. The extent of phosphorylation is measured using the IMAP technology (Molecular Devices) where the phosphorylated fluorescent substrate binds to the large M(III)-based nanoparticles which reduces the rotational speed of the substrate and thus increases its fluorescent polarization (FP).
20 μl reaction mixture contains 10 mM TriHCl, pH 7.2, 0.5 nM GST tagged IRAK-4 (SignalChem), 100 nM fluorescent peptide substrate (RP7030, Molecular Devices), 100 μM ATP, 1 mM DTT, 1 mM MgCl2, and 0.01% Tween 20. The reaction is initiated by the addition of ATP. After incubation for 30 minutes at 25° C., 60 μl of Progressive IMAP Reagent (Molecular Devices) is added to stop the reaction. Change in RP7030's FP is determined by a FP reader (Analyst HT, LH, BioSystems).

Chain of GST tagged IRAK-4 (Q9NWZ3 whole entry): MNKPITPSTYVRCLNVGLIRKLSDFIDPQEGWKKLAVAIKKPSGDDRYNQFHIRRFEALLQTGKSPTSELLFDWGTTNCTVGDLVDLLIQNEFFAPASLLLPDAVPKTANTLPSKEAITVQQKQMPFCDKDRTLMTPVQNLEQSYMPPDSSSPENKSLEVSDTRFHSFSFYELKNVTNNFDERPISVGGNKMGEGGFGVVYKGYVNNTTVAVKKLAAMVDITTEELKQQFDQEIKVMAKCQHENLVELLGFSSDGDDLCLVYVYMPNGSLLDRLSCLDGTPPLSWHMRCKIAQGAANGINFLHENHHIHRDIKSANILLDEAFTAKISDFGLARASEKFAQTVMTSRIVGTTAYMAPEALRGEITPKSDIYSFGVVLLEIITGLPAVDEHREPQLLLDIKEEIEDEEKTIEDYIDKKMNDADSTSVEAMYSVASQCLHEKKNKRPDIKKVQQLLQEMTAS

Row | Molecule | IC50 (μM) [µM] | IC50 [µM]
1 | CON=C1CCC(c2cc(NC(=O)c3cnn4cccnc34)n(-c3ccc(C)cc3)n2)CC1 (stereo not shown) [Example 3, N-(3-(4-(methoxyimino)cyclohexyl)-1-(p-tolyl)-1H-pyrazol-5-yl)pyrazolo[1,5-a]pyrimidine-3-carboxamide] | < 1 | 
2 | Cc1ccc(-n2nc(C3CCN(S(=O)(=O)c4ccc(F)c(F)c4)CC3)cc2NC(=O)c2cnn3cccnc23)cc1 [Example 365] | < 1 | 
3 | COc1ccc(-c2cc(NC(=O)c3cnn4cccnc34)n(-c3cccc(F)c3)n2)cc1 [Example 132, N-(1-(3-fluorophenyl)-3-(4-methoxyphenyl)-1H-pyrazol-5-yl)pyrazolo[1,5-a]pyrimidine-3-carboxamide] | < 1 | 
4 | C[C@@H](N)c1ccc(-n2nc(C3CCN(S(C)(=O)=O)CC3)cc2NC(=O)c2cnn3cccnc23)nc1 [Example 163, (R)—N-(1-(5-(1-aminoethyl)pyridin-2-yl)-3-(1-(methylsulfonyl)piperidin-4-yl)-1H-pyrazol-5-yl)pyrazolo[1,5-a]pyrimidine-3-carboxamide] |  | < 0.1
5 | CNS(=O)(=O)c1ccc(-c2cc(NC(=O)c3cnn4cccnc34)n(-c3ccc(C)cc3)n2)cc1 [Example 347, N-{1-(4-methylphenyl)-3-[4-(methylsulfamoyl)phenyl]-1H-pyrazol-5-yl}pyrazolo[1,5-a]pyrimidine-3-carboxamide] |  | < 0.1
6 | Cc1ccc(-n2nc(C3CCN(Cc4ccccn4)CC3)cc2NC(=O)c2cnn3cccnc23)cc1 [Example 226, N-{1-(4-methylphenyl)-3-[1-(pyridin-2-ylmethyl)piperidin-4-yl]-1H-pyrazol-5-yl}pyrazolo[1,5-a]pyrimidine-3-carboxamide] |  | < 0.1
7 | Cc1ccc(-n2nc(-c3ccc(S(N)(=O)=O)cc3)cc2NC(=O)c2cnn3cccnc23)cc1 [Example 99, N-(3-(4-sulfamoylphenyl)-1-(p-tolyl)-1H-pyrazol-5-yl)pyrazolo[1,5-a]pyrimidine-3-carboxamide] |  | < 0.1
8 | CC(=O)N1CCC(c2cc(NC(=O)c3cnn4cccnc34)n(-c3ccc(C)cc3)n2)CC1 [Example 31, N-(3-(1-acetylpiperidin-4-yl)-1-(p-tolyl)-1H-pyrazol-5-yl)pyrazolo[1,5-a]pyrimidine-3-carboxamide] | < 1 | 
9 | N3-(3-(1-(methylsulfonyl)piperidin-4-yl)-1-(p-tolyl)-1H-pyrazol-5-yl)pyrazolo[1,5-a]pyrimidine-3,6-dicarboxamide [Example 192] |  | < 0.1
10 | Cc1ccc(-n2nc(C3CCN(S(=O)(=O)Cc4ccccn4)CC3)cc2NC(=O)c2cnn3cccnc23)cc1 [Example 397, N-[1-(4-methylphenyl)-3-{1-[(pyridin-2-ylmethyl)sulfonyl]piperidin-4-yl}-1H-pyrazol-5-yl]pyrazolo[1,5-a]pyrimidine-3-carboxamide] |  | < 0.1
11 | Cc1ccc(-n2nc(C3CCN(S(=O)(=O)c4cccc(C(F)(F)F)c4)CC3)cc2NC(=O)c2cnn3cccnc23)cc1 [Example 371, N-[1-(4-methylphenyl)-3-(1-{[3-(trifluoromethyl)phenyl]sulfonyl}piperidin-4-yl)-1H-pyrazol-5-yl]pyrazolo[1,5-a]pyrimidine-3-carboxamide] | > 1 | 
12 | Cc1ccc(-n2nc(C3CCN(C(=O)C4CN(C)CCO4)CC3)cc2NC(=O)c2cnn3cc(Br)cnc23)cc1 (stereo not shown) [Example 117, 6-bromo-N-(3-(1-(4-methylmorpholine-2-carbonyl)piperidin-4-yl)-1-(p-tolyl)-1H-pyrazol-5-yl)pyrazolo[1,5-a]pyrimidine-3-carboxamide] | < 1 | 
13 | Cc1ccc(-n2nc(N3CCN(S(C)(=O)=O)CC3)cc2NC(=O)c2cnn3cccnc23)nc1 [Example 199, N-(1-(5-methylpyridin-2-yl)-3-(4-(methylsulfonyl)piperazin-1-yl)-1H-pyrazol-5-yl)pyrazolo[1,5-a]pyrimidine-3-carboxamide] |  | < 0.1
